What was measured:
[1] = Deodorization test 1; settings: Trimethylamine; for Reduction: initial 20 ppm, after 30 minutes; for Reduction / Concentration after 30 minutes: 0.2 ml of 10% by weight aqueous solution; for Concentration after 30 minutes: initial concentration 20 ppm
[2] = Deodorization test 1; settings: Isovaleric acid; for Reduction: initial 10 ppm, after 30 minutes; for Reduction / Concentration after 30 minutes: 0.2 ml of 10% by weight aqueous solution; for Concentration after 30 minutes: initial concentration 10 ppm
[3] = Deodorization test 1; settings: Acetaldehyde; for Reduction: initial 10 ppm, after 30 minutes; for Reduction / Concentration after 30 minutes: 0.2 ml of 10% by weight aqueous solution; for Concentration after 30 minutes: initial concentration 10 ppm
[4] = Deodorization test 1; settings: Acetic acid; for Reduction: initial 20 ppm, after 30 minutes; for Reduction / Concentration after 30 minutes: 0.2 ml of 10% by weight aqueous solution; for Concentration after 30 minutes: initial concentration 20 ppm
[5] = Deodorization test 1; settings: Methyl mercaptan; for Reduction: initial 10 ppm, after 30 minutes; for Reduction / Concentration after 30 minutes: 0.2 ml of 10% by weight aqueous solution; for Concentration after 30 minutes: initial concentration 10 ppm
[6] = Deodorization test 1; settings: Ammonia; for Reduction: initial 100 ppm, after 30 minutes; for Reduction / Concentration after 30 minutes: 0.2 ml of 10% by weight aqueous solution; for Concentration after 30 minutes: initial concentration 100 ppm
[7] = Deodorization test 1; settings: Styrene, 0.2 ml of 10% by weight aqueous solution; for Reduction: initial 100 ppm, after 30 minutes; for Concentration after 30 minutes: initial concentration 100 ppm
[8] = Deodorization test 1; settings: Toluene, 0.2 ml of 10% by weight aqueous solution; for Reduction: initial 100 ppm, after 30 minutes; for Concentration after 30 minutes: initial concentration 100 ppm
[9] = Deodorization test 1; settings: Formaldehyde, 0.2 ml of 10% by weight aqueous solution; for Reduction: initial 10 ppm, after 30 minutes; for Concentration after 30 minutes: initial concentration 10 ppm

SMILES | Reduction [1] [%] | Concentration after 30 minutes [1] [ppm] | Reduction [2] [%] | Concentration after 30 minutes [2] [ppm] | Reduction [3] [%] | Concentration after 30 minutes [3] [ppm] | Reduction [4] [%] | Concentration after 30 minutes [4] [ppm] | Reduction [5] [%] | Concentration after 30 minutes [5] [ppm] | Reduction [6] [%] | Concentration after 30 minutes [6] [ppm] | Reduction [7] [%] | Concentration after 30 minutes [7] [ppm] | Reduction [8] [%] | Concentration after 30 minutes [8] [ppm] | Reduction [9] [%] | Concentration after 30 minutes [9] [ppm] | other results
N[C@@H](CS)C(=O)O [Cysteine] | 100 | 0 | 20 | 8 | 0 | 10 | 20 | 16 | 0 | 10 | 100 | 0 | 10 | 90 | 10 | 90 | 20 | 8 | deodorizing action (in words) [1]: excellent deodorizing action; deodorizing action (in words) [6]: excellent deodorizing action
NCCCC[C@H](N)C(=O)O [Lysine] | 10 | 18 | 0 | 10 | 10 | 9 | 0 | 20 | 0 | 10 | 10 | 90 | 0 | 100 | 0 | 100 | 0 | 10 | –
CC(C)[C@H](N)C(=O)O [Valine] | 5 | 19 | 0 | 10 | 0 | 10 | 0 | 20 | 0 | 10 | 10 | 90 | 0 | 100 | 0 | 100 | 0 | 10 | –
CSCC[C@H](N)C(=O)O [Methionine] | 10 | 18 | 0 | 10 | 10 | 9 | 10 | 18 | 0 | 10 | 30 | 70 | 10 | 90 | 10 | 90 | 10 | 9 | –
NCC(=O)O [Glycine] | 100 | 0 | 90 | 1 | 80 | 2 | 90 | 2 | 100 | 0 | 100 | 0 | 60 | 40 | 60 | 40 | 70 | 3 | deodorizing action (in words) [1]: excellent deodorizing action; deodorizing action (in words) [2]: good results; deodorizing action (in words) [3]: good results; deodorizing action (in words) [4]: good results; deodorizing action (in words) [5]: excellent deodorizing action; deodorizing action (in words) [6]: excellent deodorizing action
O=C(O)[C@@H]1CCCN1 [Proline] | 5 | 19 | 0 | 10 | 20 | 8 | 0 | 20 | 0 | 10 | 10 | 90 | 0 | 100 | 0 | 100 | 0 | 10 | –
N=C(N)NCCC[C@H](N)C(=O)O [Arginine] | 5 | 19 | 0 | 10 | 10 | 9 | 15 | 17 | 0 | 10 | 10 | 90 | 0 | 100 | 0 | 100 | 0 | 10 | –
N[C@@H](Cc1c[nH]c2ccccc12)C(=O)O [Tryptophan] | 50 | 10 | 0 | 10 | 10 | 9 | 10 | 18 | 0 | 10 | 50 | 50 | 0 | 100 | 0 | 100 | 10 | 9 | –
